Laboratory results from patent US4101537A, “Octapeptides and methods for their production” (Parke, Davis & Company, priority 1977, dated 1978).
Values joined by “and” are separate entries in the source; they are usually repeats but may differ in a detail not shown here. Identical values can stand only once.

System: LRF (luteinizing hormone releasing factor) induced luteinizing hormone (LH) release
Experiment: LRF antagonist activity in vitro in rat anterior pituitary cell cultures
Assay type: cell-based
Settings: LRF alone 3.5×10^-10 Molar (LRF Control)
Description: Octapeptides of this invention were screened for LRF antagonist activity in vitro using rat anterior pituitary cell cultures as described by Vale et. al. [Endocrinology, 91, 562 (1972)]. The inhibition of LRF (luteinizing hormone releasing factor) induced luteinizing hormone (LH) release into the culture medium is the endpoint in this in vitro bioassay.

With “LRF Control: luteinizing hormone releasing factor, the stimulus whose LH release the octapeptides inhibit; also called luteinizing hormone releasing hormone (QHWSYGLRPG; Gonadoliberin-1; UniProt P01148 24-33, looked up)” the “LH Value” was 63.90 ng/mL and 64.13 ng/mL and 40.01 ng/mL.
